Laboratory results from patent US9371320B2, “Heterocyclic compound” (TAKEDA PHARMACEUTICAL COMPANY LIMITED, priority 2012, dated 2016).

Experiments:
Tyk2 = target: T1, Tyk2 (Homo sapiens, UniProt P29597); assay: Tyk2 enzyme inhibition test (LANCE method); format: biochemical; details: test compound 1 μM; for inhibition at 1 µM: read-out: Inhibitory rate (%) Tyk2 1 μM
T1 construct: purchased Invitrogen
How it was run: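 Recombinant Tyk2 (375 ng/mL stock) with ULight-JAK1 peptide (300 nM stock) and ATP (30 μM stock) in HEPES pH 7.5/MgCl2/EGTA/DTT buffer, 1 h at room temperature. Stopped with EDTA plus Eu-anti-phosphotyrosine antibody; TR-FRET read at 665 nm after 1 h. No-enzyme wells define 100% inhibition.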

JAK1 = target: T2, JAK1 (Homo sapiens, UniProt P23458); assay: JAK1 enzyme inhibition test (LANCE method); format: biochemical; details: test compound 1 μM; for inhibition at 1 µM: read-out: Inhibitory rate (%) JAK1 1 μM
T2 construct: purchased Invitrogen
How it was run: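 TR-FRET (LANCE) kinase assay using JAK1 at 187.5 ng/mL, ULight-JAK1 peptide at 300 nM and ATP at 150 μM, given as solution concentrations before mixing. Buffer was 50 mM HEPES pH 7.5 with 10 mM MgCl2 and 2 mM DTT, and the reaction ran 1 h at room temperature. Eu anti-phosphotyrosine signal at 665 nm was expressed relative to a no-enzyme well, taken as 100% inhibition.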

T2 sequence (P23458 whole entry): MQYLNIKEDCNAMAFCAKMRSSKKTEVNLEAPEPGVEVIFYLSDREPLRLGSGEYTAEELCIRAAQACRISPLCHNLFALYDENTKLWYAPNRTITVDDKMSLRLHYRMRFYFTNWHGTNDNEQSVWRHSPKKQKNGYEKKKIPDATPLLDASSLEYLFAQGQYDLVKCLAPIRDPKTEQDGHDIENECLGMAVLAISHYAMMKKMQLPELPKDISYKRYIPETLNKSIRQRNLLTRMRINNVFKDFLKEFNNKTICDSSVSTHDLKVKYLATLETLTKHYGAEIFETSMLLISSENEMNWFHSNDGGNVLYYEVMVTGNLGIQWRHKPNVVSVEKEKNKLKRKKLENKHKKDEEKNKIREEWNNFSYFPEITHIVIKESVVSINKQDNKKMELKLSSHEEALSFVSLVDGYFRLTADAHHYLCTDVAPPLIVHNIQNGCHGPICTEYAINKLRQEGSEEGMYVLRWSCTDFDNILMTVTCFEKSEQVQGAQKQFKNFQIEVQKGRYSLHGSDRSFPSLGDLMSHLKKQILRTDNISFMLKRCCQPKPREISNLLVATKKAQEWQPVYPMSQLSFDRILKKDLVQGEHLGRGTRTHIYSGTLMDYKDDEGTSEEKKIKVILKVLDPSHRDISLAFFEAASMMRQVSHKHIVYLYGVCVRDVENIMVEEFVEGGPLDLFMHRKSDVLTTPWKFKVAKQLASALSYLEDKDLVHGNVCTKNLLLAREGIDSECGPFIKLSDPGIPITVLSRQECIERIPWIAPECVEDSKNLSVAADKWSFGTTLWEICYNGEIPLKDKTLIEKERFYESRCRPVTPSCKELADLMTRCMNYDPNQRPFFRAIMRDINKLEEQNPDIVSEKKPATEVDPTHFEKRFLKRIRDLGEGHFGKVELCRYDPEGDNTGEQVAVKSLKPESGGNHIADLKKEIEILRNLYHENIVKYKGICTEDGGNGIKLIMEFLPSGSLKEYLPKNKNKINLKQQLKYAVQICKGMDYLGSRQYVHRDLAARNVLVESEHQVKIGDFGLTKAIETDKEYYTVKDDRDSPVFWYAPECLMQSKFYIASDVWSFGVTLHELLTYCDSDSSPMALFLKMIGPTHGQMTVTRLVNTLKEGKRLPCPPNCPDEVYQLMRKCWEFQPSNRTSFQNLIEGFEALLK
T1 sequence (P29597 whole entry): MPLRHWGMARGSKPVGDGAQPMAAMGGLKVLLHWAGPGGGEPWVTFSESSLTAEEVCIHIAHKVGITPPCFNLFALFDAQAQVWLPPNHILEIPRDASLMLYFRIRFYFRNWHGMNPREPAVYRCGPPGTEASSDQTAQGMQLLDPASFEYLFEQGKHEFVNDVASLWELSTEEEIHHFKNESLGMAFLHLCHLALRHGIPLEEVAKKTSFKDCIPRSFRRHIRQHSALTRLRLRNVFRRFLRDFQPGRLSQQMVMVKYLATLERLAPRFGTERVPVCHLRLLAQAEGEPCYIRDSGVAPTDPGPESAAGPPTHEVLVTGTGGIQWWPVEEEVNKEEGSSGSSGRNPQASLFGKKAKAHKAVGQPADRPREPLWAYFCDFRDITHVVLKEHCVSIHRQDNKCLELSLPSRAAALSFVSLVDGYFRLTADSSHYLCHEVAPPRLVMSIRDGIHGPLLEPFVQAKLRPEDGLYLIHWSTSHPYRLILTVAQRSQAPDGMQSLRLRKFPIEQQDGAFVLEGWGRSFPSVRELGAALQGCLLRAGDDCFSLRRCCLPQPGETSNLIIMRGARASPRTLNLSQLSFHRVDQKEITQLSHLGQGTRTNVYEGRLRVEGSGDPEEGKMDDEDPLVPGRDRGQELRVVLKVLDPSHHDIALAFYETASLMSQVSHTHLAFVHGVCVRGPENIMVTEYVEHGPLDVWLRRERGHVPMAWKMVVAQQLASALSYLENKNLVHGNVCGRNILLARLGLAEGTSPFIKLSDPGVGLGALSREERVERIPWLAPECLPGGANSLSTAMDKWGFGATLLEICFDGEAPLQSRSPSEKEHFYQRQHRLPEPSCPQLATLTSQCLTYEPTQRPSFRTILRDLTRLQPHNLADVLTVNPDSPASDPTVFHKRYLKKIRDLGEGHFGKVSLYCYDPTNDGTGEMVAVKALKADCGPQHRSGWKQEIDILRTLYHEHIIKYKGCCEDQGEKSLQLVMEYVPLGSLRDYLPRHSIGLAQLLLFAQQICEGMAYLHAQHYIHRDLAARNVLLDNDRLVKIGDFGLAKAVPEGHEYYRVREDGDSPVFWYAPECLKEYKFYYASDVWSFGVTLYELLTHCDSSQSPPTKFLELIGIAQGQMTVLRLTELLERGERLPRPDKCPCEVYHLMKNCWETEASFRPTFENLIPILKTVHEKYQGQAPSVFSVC

SMILES | inhibition at 1 µM (Tyk2) | inhibition at 1 µM (JAK1) | Inhibitory rate (%) Tyk2 1 μM (Tyk2) | Inhibitory rate (%) JAK1 1 μM (JAK1)
N#Cc1c[nH]c(=O)c2c(Nc3cccc(C(N)=O)c3)cn(C3CCCC3)c12 [Example 178, 3-((7-cyano-1-cyclopentyl-4-oxo-4,5-dihydro-1H-pyrrolo[3,2-c]pyridin-3-yl)amino)benzamide] | 99% | 93% |  | 
COC(=O)c1cc(-c2nn(C3CCCC3)c3cc[nH]c(=O)c23)cs1 [Example 12, methyl 4-(1-cyclopentyl-4-oxo-4,5-dihydro-1H-pyrazolo[4,3-c]pyridin-3-yl)thiophene-2-carboxylate] | 98% | 98% |  | 
NS(=O)(=O)c1cccc(Nc2nn(C3CCCC3)c3c(Br)c[nH]c(=O)c23)c1 [Example 285, 3-((7-bromo-1-cyclopentyl-4-oxo-4,5-dihydro-1H-pyrazolo[4,3-c]pyridin-3-yl)amino)benzenesulfonamide] | 82% | 70% |  | 
COc1cccc(-c2nn(C3CCCC3)c3cc[nH]c(=O)c23)c1 [Example 47, 1-cyclopentyl-3-(3-methoxyphenyl)-1,5-dihydro-4H-pyrazolo[4,3-c]pyridin-4-one] | 71% | 62% |  | 
Cn1cc(NC(=O)c2cc(-c3nn(-c4c(F)cccc4F)c4c(Cl)c[nH]c(=O)c34)cs2)cn1 [Example 166, 4-(7-chloro-1-(2,6-difluorophenyl)-4-oxo-4,5-dihydro-1H-pyrazolo[4,3-c]pyridin-3-yl)-N-(1-methyl-1H-pyrazol-4-yl)thiophene-2-carboxamide] | 100% | 98% |  | 
C[C@@H]1COCCN1c1ccc(-c2nn(-c3c(F)cccc3F)c3cc[nH]c(=O)c23)cc1 [Example 246, 1-(2,6-difluorophenyl)-3-(4-((3R)-3-methylmorpholin-4-yl)phenyl)-1,5-dihydro-4H-pyrazolo[4,3-c]pyridin-4-one] | 99% | 94% |  | 
NC(=O)Cc1ccc(-c2nn(-c3c(F)cccc3F)c3c(Br)c[nH]c(=O)c23)cc1 [Example 112, 2-(4-(7-bromo-1-(2,6-difluorophenyl)-4-oxo-4,5-dihydro-1H-pyrazolo[4,3-c]pyridin-3-yl)phenyl)acetamide] | 98% | 89% |  | 
NS(=O)(=O)c1ccc(-c2nn(C3CCCOC3)c3cc[nH]c(=O)c23)cc1 (stereo not shown) [Example 28, 4-(4-oxo-1-(tetrahydro-2H-pyran-3-yl)-4,5-dihydro-1H-pyrazolo[4,3-c]pyridin-3-yl)benzenesulfonamide] |  |  | 97% | 99%
NC(=O)c1cc(-c2nn(C3CCCC3)c3c(Cl)c[nH]c(=O)c23)cs1 [Example 296, 4-(7-chloro-1-cyclopentyl-4-oxo-4,5-dihydro-1H-pyrazolo[4,3-c]pyridin-3-yl)thiophene-2-carboxamide] | 96% | 90% |  | 
CC1(C)CCCC1n1nc(-c2ccc(N3CCOCC3)cc2)c2c(=O)[nH]ccc21 (stereo not shown) [Example 314, 1-(2,2-dimethylcyclopentyl)-3-(4-(morpholin-4-yl)phenyl)-1,5-dihydro-4H-pyrazolo[4,3-c]pyridin-4-one] | 99% | 95% |  | 
N#Cc1c[nH]c(=O)c2c(-c3ccc(N4CCOCC4)cc3)nn(-c3c(F)cccc3F)c12 [Example 229, 1-(2,6-difluorophenyl)-3-(4-(morpholin-4-yl)phenyl)-4-oxo-4,5-dihydro-1H-pyrazolo[4,3-c]pyridine-7-carbonitrile] | 98% | 81% |  | 
CCC(CC)n1cc(-c2csc(C(=O)OC)c2)c2c(=O)[nH]ccc21 [Example 7, methyl 4-(4-oxo-1-(pentan-3-yl)-4,5-dihydro-1H-pyrrolo[3,2-c]pyridin-3-yl)thiophene-2-carboxylate] | 90% | 95% |  | 
COC(=O)c1ccc(-c2nn(-c3c(F)cccc3F)c3cc[nH]c(=O)c23)cc1 [Example 260, methyl 4-(1-(2,6-difluorophenyl)-4-oxo-4,5-dihydro-1H-pyrazolo[4,3-c]pyridin-3-yl)benzoate] | 94% | 77% |  | 
O=c1[nH]ccc2c1c(-c1ccc(N3CCOCC3)cc1)nn2C1CCCCC1(F)F (stereo not shown) [Example 317, 1-(2,2-difluorocyclohexyl)-3-(4-(morpholin-4-yl)phenyl)-1,5-dihydro-4H-pyrazolo[4,3-c]pyridin-4-one] | 99% | 96% |  | 
NS(=O)(=O)c1ccc(Nc2nn(C3CCCC3)c3cc[nH]c(=O)c23)cc1 [Example 297, 4-((1-cyclopentyl-4-oxo-4,5-dihydro-1H-pyrazolo[4,3-c]pyridin-3-yl)amino)benzenesulfonamide] | 99% | 98% |  | 
NC(=O)Cc1ccc(-c2nn(-c3c(F)cccc3F)c3c(Cl)c[nH]c(=O)c23)cc1 [Example 124, 2-(4-(7-chloro-1-(2,6-difluorophenyl)-4-oxo-4,5-dihydro-1H-pyrazolo[4,3-c]pyridin-3-yl)phenyl)acetamide] | 98% | 89% |  | 
N#CCc1cc(-c2cn(C3CCCC3)c3c(C#N)c[nH]c(=O)c23)cs1 [Example 93, 3-(5-(cyanomethyl)-3-thienyl)-1-cyclopentyl-4-oxo-4,5-dihydro-1H-pyrrolo[3,2-c]pyridine-7-carbonitrile] | 99% | 98% |  | 
O=C1CCCN1c1ccc(-c2nn(-c3c(F)cccc3F)c3cc[nH]c(=O)c23)cc1 [Example 292, 1-(2,6-difluorophenyl)-3-(4-(2-oxopyrrolidin-1-yl)phenyl)-1,5-dihydro-4H-pyrazolo[4,3-c]pyridin-4-one] | 99% | 97% |  | 
COCCNC(=O)c1ccc(-c2nn(-c3c(F)cccc3F)c3c(Cl)c[nH]c(=O)c23)cc1 [Example 231, 4-(7-chloro-1-(2,6-difluorophenyl)-4-oxo-4,5-dihydro-1H-pyrazolo[4,3-c]pyridin-3-yl)-N-(2-methoxyethyl)benzamide] | 99% | 51% |  | 
O=c1[nH]ccc2c1c(-c1cccc(CN3CCCC3)c1)nn2-c1c(F)cccc1F [Example 288, 1-(2,6-difluorophenyl)-3-(3-(pyrrolidin-1-ylmethyl)phenyl)-1,5-dihydro-4H-pyrazolo[4,3-c]pyridin-4-one] | 94% | 55% |  | 
CC(C)(C#N)c1ccc(-c2cn(C3CCCC3)c3c(C#N)c[nH]c(=O)c23)cc1 [Example 139, 3-(4-(2-cyanopropan-2-yl)phenyl)-1-cyclopentyl-4-oxo-4,5-dihydro-1H-pyrrolo[3,2-c]pyridine-7-carbonitrile] | 98% | 96% |  | 
NC(=O)c1cc(-c2nn(C3CCC(O)(c4ccccc4)CC3)c3cc[nH]c(=O)c23)cs1 (stereo not shown) [Example 172, 4-(1-(4-hydroxy-4-phenylcyclohexyl)-4-oxo-4,5-dihydro-1H-pyrazolo[4,3-c]pyridin-3-yl)thiophene-2-carboxamide] | 97% | 99% |  | 
COc1ccc(-c2nn(C3CCCC3)c3cc[nH]c(=O)c23)cc1 [Example 46, 1-cyclopentyl-3-(4-methoxyphenyl)-1,5-dihydro-4H-pyrazolo[4,3-c]pyridin-4-one] | 95% | 91% |  | 
